Calls of active or inactive are those of the source. No cut-off for these calls is given here.
Test system: Plasmodium falciparum
Experiment: Antimalarial activity against blood stage Plasmodium falciparum 3D7 assessed as reduction in parasite growth incubated for 72 hrs by SYBR Green dye based fluorescence assay
Assay type: functional, organism-based
Conditions: not given

| Compound | Activity |
| --- | --- |
| COc1cc2nccc(Oc3ccc(NC(=O)Nc4cccc(C(=O)N5CCN(C)CC5)c4)c(F)c3)c2cc1OC | inactive |
| COc1cc2nccc(Oc3ccc(NC(=O)Nc4ccc(CN5CCOCC5)cc4)c(F)c3)c2cc1OC | inactive |
| COc1cc2nccc(Oc3ccc(NC(=O)Nc4cccc(C(C)C)c4)c(F)c3)c2cc1OC | inactive |
| COc1cc2nccc(Oc3ccc(NC(=O)Nc4cccc(CN5CCN(C)CC5)c4)c(F)c3)c2cc1OC | inactive |
| COc1cc2nccc(Oc3ccc(NC(=O)Nc4cc(C(F)(F)F)ccc4F)c(F)c3)c2cc1OC | inactive |
| COc1cc2nccc(Oc3ccc(NC(=O)Nc4ccc(C(=O)N5CCN(C)CC5)c(C(F)(F)F)c4)c(F)c3)c2cc1OC | inactive |
| COc1cc2nccc(Oc3ccc(NC(=O)Nc4cccc(OC(F)F)c4)c(F)c3)c2cc1OC | inactive |
| COc1cc2nccc(Oc3ccc(NC(=O)Nc4cccc(OC(C)C)c4)c(F)c3)c2cc1OC | inactive |
| COc1cc2nccc(Oc3ccc(NC(=O)Nc4cc(C(=O)N5CCN(C)CC5)cc(C(F)(F)F)c4)c(F)c3)c2cc1OC | inactive |
| COc1cc2nccc(Oc3ccc(NC(=O)Nc4ccc(C(=O)N5CCN(C)CC5)cc4)c(F)c3)c2cc1OC | inactive |
| COc1cc2nccc(Oc3ccc(NC(=O)Nc4cccc(Br)c4)c(F)c3)c2cc1OC | inactive |
| COc1cc2nccc(Oc3ccc(NC(=O)Nc4cccc(C#N)c4)c(F)c3)c2cc1OC | inactive |
| COc1cccc(NC(=O)Nc2ccc(Oc3ccnc4cc(OC)c(OC)cc34)cc2F)c1 | inactive |

Same assay, conditions: 3D7, 72 h

| Compound | EC50 |
| --- | --- |
| COc1cc2nccc(Oc3ccc(NC(=O)Nc4ccc(CN5CCN(C)CC5)cc4)c(F)c3)c2cc1OC | 580 nM |
| C[C@H]1[C@@H](O)O[C@@H]2O[C@@]3(C)CC[C@H]4[C@H](C)CC[C@@H]1[C@@]24OO3 [ARTENIMOL] | 0.14 nM |
| COc1cc2nccc(Oc3ccc(NC(=O)Nc4ccc(OC5CCN(C)CC5)cc4)c(F)c3)c2cc1OC | 330 nM |
| COc1cc2nccc(Oc3ccc(NC(=O)Nc4cccc(OC(F)(F)F)c4)c(F)c3)c2cc1OC | 800 nM |
| COc1cc2nccc(Oc3ccc(NC(=O)Nc4ccc(C=C5CCNCC5)c(C(F)(F)F)c4)c(F)c3)c2cc1OC | 83 nM |
| COc1cc2nccc(Oc3ccc(NC(=O)Nc4ccc(CN5CCCC5)cc4)c(F)c3)c2cc1OC | 270 nM |
| COc1cc2nccc(Oc3ccc(NC(=O)Nc4ccc(CN5CCCCC5)cc4)c(F)c3)c2cc1OC | 250 nM |
| CN1CCN(C(=O)c2cccc(NC(=O)Nc3ccc(N(C)c4ccnc(Nc5ccc(CS(C)(=O)=O)cc5)n4)cc3)c2)CC1 | 390 nM |
| COc1cc2nccc(Oc3ccc(NC(=O)Nc4ccc(CN5CCCC5)c(C(F)(F)F)c4)c(F)c3)c2cc1OC | 330 nM |
| COc1cc2nccc(Oc3ccc(NC(=O)Nc4ccc(CC5CCNCC5)c(OC(F)(F)F)c4)c(F)c3)c2cc1OC | 82 nM |
| COc1cc2nccc(Oc3ccc(NC(=O)Nc4ccc(CN5CCCCC5)c(C(F)(F)F)c4)c(F)c3)c2cc1OC | 490 nM |
| CCN(CC)CCCC(C)Nc1c2ccc(Cl)cc2nc2ccc(OC)cc12 (centres undefined) [QUINACRINE] | 33 nM |
| CCN(CC)Cc1ccc(NC(=O)Nc2ccc(Oc3ccnc4cc(OC)c(OC)cc34)cc2F)cc1 | 320 nM |
| COc1cc2nccc(Oc3ccc(NC(=O)Nc4ccc(C=C5CCNCC5)c(OC(F)(F)F)c4)c(F)c3)c2cc1OC | 84 nM |
| CCc1nc(N)nc(N)c1-c1ccc(Cl)cc1 [PYRIMETHAMINE] | 27 nM |
| COc1cc2nccc(Oc3ccc(NC(=O)Nc4ccc(N(C)C5CCN(C)CC5)cc4)c(F)c3)c2cc1OC | 330 nM |

| Compound | EC50 |
| --- | --- |
| COc1cc2nccc(Oc3ccc(NC(=O)Nc4cccc(C(F)(F)F)c4)c(F)c3)c2cc1OC | 540 nM |
| COc1cc2nccc(Oc3cc(C(=O)Nc4ccc(CN5CCN(C)CC5)c(C(F)(F)F)c4)ccc3C)c2cc1OC | 410 nM |
| CCN(CC)Cc1ccc(NC(=O)Nc2ccc(Oc3ccnc4cc(OC)c(OC)cc34)cc2F)cc1OC(F)(F)F | 270 nM |
| COc1cc2nccc(Oc3ccc(NC(=O)Nc4ccc(N(C)C5CCN(C)CC5)c(OC(F)(F)F)c4)c(F)c3)c2cc1OC | 250 nM |
| COc1cc2nccc(Oc3ccc(NC(=O)Nc4ccc(N5CCN(C)CC5)cc4)c(F)c3)c2cc1OC | 630 nM |
| COc1cc2nccc(Oc3ccc(NC(=O)Nc4cccc(C)c4)c(F)c3)c2cc1OC | 3010 nM |
| COc1cc2nccc(Oc3ccc(NC(=O)Nc4cccc(Cl)c4)c(F)c3)c2cc1OC | 2190 nM |
| COc1cc2nccc(Oc3ccc(NC(=O)Nc4ccc(N(C)C5CCN(C)CC5)c(C(F)(F)F)c4)c(F)c3)c2cc1OC | 150 nM |
| Nc1ncnc2occ(-c3ccc(NC(=O)Nc4cc(C(F)(F)F)ccc4F)cc3)c12 [GW770249X] | 500 nM |
| COc1cc2nccc(Oc3ccc(NC(=O)Nc4cccc(C(C)(C)C)c4)c(F)c3)c2cc1OC | 2520 nM |
| CCN(CC)Cc1ccc(NC(=O)Nc2ccc(Oc3ccnc4cc(OC)c(OC)cc34)cc2F)cc1C(F)(F)F | 300 nM |
| COc1cc2nccc(Oc3ccc(NC(=O)Nc4ccc(CN5CCCCC5)c(OC(F)(F)F)c4)c(F)c3)c2cc1OC | 310 nM |
| COc1cc2nccc(Oc3ccc(NC(=O)Nc4ccc(NC5CCN(C)CC5)cc4)c(F)c3)c2cc1OC | 660 nM |
| COc1cc2nccc(Oc3ccc(NC(=O)Nc4ccc(CN5CCCC5)c(OC(F)(F)F)c4)c(F)c3)c2cc1OC | 230 nM |
| COc1cc2nccc(Oc3ccc(NC(=O)Nc4ccc(OC5CCN(C)CC5)c(OC(F)(F)F)c4)c(F)c3)c2cc1OC | 75 nM |
| COc1cc2nccc(Oc3ccc(NC(=O)Nc4cc(CN5CCN(C)CC5)cc(C(F)(F)F)c4)c(F)c3)c2cc1OC | 410 nM |

Target: T1, Cdk-related protein kinase 6 (Plasmodium falciparum) (UniProt O77239)
T1 sequence (whole entry): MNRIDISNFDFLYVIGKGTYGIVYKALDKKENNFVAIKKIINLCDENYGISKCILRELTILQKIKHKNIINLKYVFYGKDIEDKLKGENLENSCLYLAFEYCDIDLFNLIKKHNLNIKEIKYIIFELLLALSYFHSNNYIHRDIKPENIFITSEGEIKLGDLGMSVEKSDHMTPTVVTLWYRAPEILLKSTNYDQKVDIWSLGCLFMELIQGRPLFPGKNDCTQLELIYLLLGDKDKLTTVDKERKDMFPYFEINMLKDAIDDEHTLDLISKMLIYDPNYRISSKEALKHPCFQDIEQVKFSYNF
Experiment: Inhibition of plasmodium falciparum PK6 assessed as remaining activity at 1 uM incubated for 2 hrs by luciferin-based luminescence assay relative to control
Conditions: not given

| Compound | Activity |
| --- | --- |
| COc1cc2nccc(Oc3ccc(NC(=O)Nc4ccccc4)cc3)c2cc1OC | 4% |
| COc1cc2nccc(Oc3ccc(NC(=O)Nc4ccc(F)cc4)c(F)c3)c2cc1OC | 1% |
| COc1cc2nccc(Oc3ccc(N)c(F)c3)c2cc1OC | 100% |
| COc1cc2nccc(Oc3ccc(NC(=O)Nc4ccc(F)cc4F)cc3)c2cc1OC | 6% |
| COc1ccc2nccc(Oc3ccc(NC(=O)Nc4ccc(F)cc4F)c(F)c3)c2c1 | 24% |
| COc1cc2nccc(Oc3ccc(NC(=O)Nc4ccccc4F)c(F)c3)c2cc1OC | 1% |
| O=C(Nc1ccc(F)cc1F)Nc1ccc(Oc2ccnc3ccccc23)cc1F | 40% |
| COc1cc2nccc(Oc3ccc(NC(N)=O)c(F)c3)c2cc1OC | 28% |
| O=C(Nc1ccc(F)cc1F)Nc1ccc(Oc2ccnc3ccsc23)cc1F | 34% |
| O=C(Nc1ccc(F)cc1F)Nc1ccc(Oc2ccncn2)cc1F | 84% |
| O=C(Nc1ccc(F)cc1F)Nc1ccc(Oc2ncnc3ccsc23)cc1F | 61% |
| O=C(Nc1ccc(F)cc1F)Nc1ccc(Oc2cc(NCc3ccccc3)ncn2)cc1F | 60% |
| O=C(Nc1ccc(F)cc1F)Nc1ccc(Oc2cc(Cl)ncn2)cc1F | 96% |
| O=C(Nc1ccc(F)cc1F)Nc1ccc(Oc2cnnc3ccccc23)cc1F | 100% |
| N#Cc1cnc2ccccc2c1Oc1ccc(NC(=O)Nc2ccc(F)cc2F)c(F)c1 | 86% |
| O=C(Nc1ccc(F)cc1F)Nc1ccc(Oc2ccnc(Cl)c2)cc1F | 92% |
| O=C(Nc1ccc(F)cc1F)Nc1ccc(Oc2ccnc3sccc23)cc1F | 43% |
| O=C(Nc1ccc(F)cc1F)Nc1ccc(Oc2ccnc3cc4c(cc23)OCO4)cc1F | 28% |
| COc1ccc2c(Oc3ccc(NC(=O)Nc4ccc(F)cc4F)c(F)c3)ccnc2c1 | 11% |

Source: ChEMBL document CHEMBL5346901, “Discovery of potent Plasmodium falciparum protein kinase 6 (PfPK6) inhibitors with a type II inhibitor pharmacophore” (Eur J Med Chem, 2023)
